Entries after “also recorded” stand apart in the source; their conditions may differ.
Experiments:
[1] = molecular target: T1, pMHC complex (neoepitope/HLA-A0201) on T2 cells (Homo sapiens, UniProt P04439, D140Y/D185E/D98H/E176V/E277Q/G131W/G231S/I119V/I121R/I166T/I218V/L300P/L318F/N151K/N90K/P208A/P217A/Q86G/Q94H/R138H/R169H/T345S); assay: T2 stability assay of pMHC complex; assay type: binding; conditions: for DC50 (time required for 50% dissociation of the pMHC complex stabilized at t = 0 h): T2 cells, 50 µg epitope + 3 µg β2M 18 h, 5 µg/mL brefeldin A 1 h, then 0, 6, 12, 18, 24 h at 37 °C, PE-HLA-A2 flow cytometry; for Stability of pMHC complexes (dissociation rate over 0-24 h, Figure 2B): in words, mean ± SD of 3 independent experiments
T1 construct: endogenous in cells; host or cells: T2 cells
Procedure: T2 cells were cultured with 50 µg of each epitope peptide and 3 µg β2M for 18 h in 1 mL FBS-free RPMI1640 medium at 37 °C in a 24-well plate using 1 × 10^6 cells/well. T2 cells were then incubated with 5 µg/mL brefeldin A (Abcam, Cambridge, UK) at 37 °C for another 1 h after washing twice with PBS. […] The MFI of the HLA-A0201 molecules in T2 cells was detected by flow cytometry. The results are expressed as DC50, which is the time required for 50% dissociation of the pMHC complex stabilized at t = 0 h.

naïve CD8+ T cells = assay: CFSE proliferation of CD8+ T cells stimulated by neoepitope-loaded DCs; assay type: cell-based, human; conditions: DCs loaded with 10 µg/mL neoepitope, T cells:DCs 10:1, two rounds of 7 days, flow cytometry, mean ± SD
Procedure: (§1) To elicit neoepitope-specific CD8^+ T cell responses, peripheral blood mononuclear cells (PBMCs) were isolated from healthy HLA-A0201 volunteer donors using lymphocyte separation medium (MP Biomedicals, Burlingame, CA, USA). This protocol was approved by the Ethics Committee of Fujian Cancer Hospital (Approval No. SQ2017-032-01). PBMCs were seeded into a 6-well plate and incubated for 2 h. Adherent cells were then induced to differentiate into dendritic cells (DCs) with 581 medium (Corning, NY, USA) in the presence of 100 ng/mL recombinant human GM-CSF (Mitenyi Biotec, Bergisch Gladbach, Germany) and 50 ng/mL recombinant human IL-4 (Mitenyi Biotec). DCs were sensitized with 10 µg/mL neoepitope, with a preparation without peptide serving as the control. After 24 h, 10 ng/mL IL-6 (Miltenyi Biotec), 10 ng/mL IL-1β (Miltenyi Biotec), 1 µg/mL CD40L (Miltenyi Biotec), and 10 ng/mL TNF-α (Mitenyi Biotec) were added for DC maturation. Next, naïve T cells were co-cultured for 7 days with DCs at a responder: stimulator ratio of 10:1. Medium was then replaced by half-fresh medium containing IL-2 (200 IU/mL, Jiangsu Kingsley Pharmaceutical, Nanjing, China) every 3 days. After another stimulation with neoepitope-loaded DCs for 7 days, CD8 MicroBeads (Mitenyi Biotec) were used to isolate positive CD8^+ T cells for subsequent experiments.
The naïve CD8^+ T cells were adjusted to 1 × 10^7 cells/mL and subjected to carboxyfluorescein succinimidyl ester (CFSE; Invitrogen) staining. The CFSE concentration was 1 µg/mL. Naïve CD8^+ T cells were incubated at 37 °C in the dark for 5 min. CFSE-labeled naïve CD8^+ T cells were incubated in 5 times the volume of 581 medium containing 5% FBS (PAN-Seratech, Aidenbach, Germany) in the dark for 2.5 min, centrifuged at 1,500 rpm for 5 min, and resuspended in 581 medium. The naïve CD8^+ T cells were co-cultured with DCs with different neoepitopes at a ratio of 10:1 (naive CD8^+ T cells: 1 × 10^6 cells: DCs: 1 × 10^5 cells). After co-culturing with DCs with different neoepitopes for 2 consecutive times, 7 days for each time, T cells were stained with 20 µL PerCP-CD3 fluorescent antibody (BD Biosciences) and 5 µL APC-CD8 fluorescent antibody (BD Biosciences) in the dark for 30 min. The CFSE abundance on the surface of T cells was detected by flow cytometry to determine the proliferation of T cells.

neoepitope-specific CTLs [2] = assay: Intracellular perforin staining of CTLs; assay type: cell-based, human; conditions: T cells:T2 cells loaded with wild-type neoepitopes 10:1, 24 h, brefeldin A 1 h, CD8+ gate, flow cytometry, mean ± SD of 3 independent experiments
Procedure: as §1
T cells and T2 cells loaded with wild-type neoepitopes were co-cultured at a ratio of 10:1 for 24 h, incubated in the presence of 5 µg/mL brefeldin A for 1 h, and washed with PBS once. The cells were stained with 20 µL PerCP-CD3 fluorescent antibody and 5 µL APC-CD8 fluorescent antibody in the dark for 30 min, followed by fixation with 100 µL Reagent A from a Intrasure Kit (BD Biosciences) in the dark for 5 min. Subsequently, the cells were permeabilized and stained with 50 µL Reagent B from the Intrasure Kit and 20 µL FITC-perforin fluorescent antibody (BD Biosciences) in the dark for 30 min. After washing with PBS once, the expression of perforin in T cells was detected by flow cytometry.

[3] = molecular target: T2, HLA-A0201 molecules on the T2 cell surface (Homo sapiens, UniProt P04439, D140Y/D185E/D98H/E176V/E277Q/G131W/G231S/I119V/I121R/I166T/I218V/L300P/L318F/N151K/N90K/P208A/P217A/Q86G/Q94H/R138H/R169H/T345S); assay: T2 binding (affinity) assay; conditions: T2 cells 1 × 10^6 cells/well, 50 µg epitope + 3 µg β2M in 1 mL FBS-free RPMI1640, 37 °C, 18 h, PE-HLA-A2 antibody, flow cytometry, FI = (MFI epitope – MFI control)/MFI control, mean ± SD
T2 construct: The MFI (mean fluorescence intensity) of HLA-A0201 molecules on the T2 cell surface was detected by flow cytometry; endogenous in cells; host or cells: T2 cells
Procedure: The T2 cells were placed in a 24-well plate at a density of 1 × 10^6 cells/well; 50 µg epitope and 3 µg β2M (Merck, Kenilworth, NJ, USA) were then added and incubated in 1 mL fetal bovine free (FBS)-free RPMI1640 medium (Invitrogen, Carlsbad, CA, USA) at 37 °C for 18 h. T2 cells were washed twice with phosphate-buffered saline (PBS), treated with 20 µL PE-HLA-A2 fluorescent antibody (BD Biosciences, San Jose, CA, USA), incubated in the dark for 30 min, and then washed with PBS once. The MFI (mean fluorescence intensity) of HLA-A0201 molecules on the T2 cell surface was detected by flow cytometry (BD Biosciences). The formula used for calculating the fluorescence index was as follows: FI = (MFI of the epitope group – MFI of the control group)/MFI of the control group.

neoepitope-specific CTLs [4] = assay: IFN-γ ELISA, CTLs co-cultured with target cells; assay type: cell-based, human; conditions: ELISA of supernatant; compared with CTLs stimulated by wild-type neoepitopes, P < 0.05
Procedure: as §1
(§2) The level of IFN-γ or TNF-α in the culture supernatants was detected using commercially available ELISA kits (Thermo Fisher Scientific, Waltham, MA, USA). Briefly, 96-well plates were coated with 100 µL/well capture antibody in coating buffer overnight. Plates were washed with wash buffer 3 times, 200 µL/well ELISA Diluent (1×) was added, and plates were incubated for 1 h. After washing with wash buffer twice, 100 µL/well of supernatants were added, incubated for 2 h, and washed with wash buffer 3 times, followed by addition of 100 µL/well antibodies against human IFN-γ/TNF-α. […] After incubation for 15 min, 100 µL/well stop solution was added to each well, and the optical density was measured using a microplate reader at 450 nm.

neoepitope-specific CTLs [5] = assay: TNF-α ELISA, CTLs co-cultured with target cells; assay type: cell-based, human; conditions: ELISA of supernatant; compared with CTLs stimulated by wild-type neoepitopes, P < 0.05
Procedure: as §1, §2

[6] = tested on: T2 cells loaded with wild-type neoepitopes; assay: LDH release cytotoxicity assay of neoepitope-specific CTLs; assay type: cell-based, human; conditions: effector/target 20:1, 10:1, 5:1, 4 h, 37 °C, compared with wild-type neoepitope-specific CTLs
Procedure: as §1
The amount of lactate dehydrogenase (LDH) released from target cells incubated with neoepitope-specific T cells was measured using the CytoTox 96® Non-Radioactive Cytotoxicity Assay Kit (Promega, Madison, WI, USA). T2 cells loaded with neoepitopes were used as target cells at 1 × 10^4 cells/well in 96-well plates. […] After adding stop solution at 50 µL/well, the plates were analyzed using a microplate reader at a wavelength of 490 nm. The killing percentage of antigen-specific T cells to T2 cells loaded with neoepitopes was calculated according to the following formula: killing percentage = (experimental release – target spontaneous release – effector spontaneous release)/(target maximum release – target spontaneous release) × 100%.

T cells = assay: IFN-γ ELISA, T cells co-cultured with neoepitope-loaded DCs; assay type: cell-based, human; conditions: ELISA of co-culture supernatant; compared with wild-type neoepitope, P < 0.05
Procedure: as §1, §2

| Sequence | DC50 (time required for 50% dissociation of the pMHC complex stabilized at t = 0 h) [1] | Proliferation of specific CD8+ T cells (naïve CD8+ T cells) | Perforin expression in CTLs (neoepitope-specific CTLs [2]) | FI (fluorescence index) [3] | IFN-γ released by CTLs co-cultured with target cells (neoepitope-specific CTLs [4]) | TNF-α released by CTLs co-cultured with target cells (neoepitope-specific CTLs [5]) | Stability of pMHC complexes (dissociation rate over 0-24 h, Figure 2B) [1] | Cytotoxicity of neoepitope-specific CTLs on T2 cells loaded with wild-type neoepitopes [6] | IFN-γ secretion in T cells stimulated by DCs with neoepitopes (T cells) |
| --- | --- | --- | --- | --- | --- | --- | --- | --- | --- |
| FIGITATVV [mutABCA2] | <18 h | 12.53% ± 1.79% | 29.87% ± 2.12% | 3.32 ± 0.36 |  |  |  |  |  |
| FLGITATVV [mutABCA2L2] | >18 h | 16.47% ± 1.59% | 36.57% ± 2.01% | 4.49 ± 0.42 | released more IFN-γ and TNF-α | released more IFN-γ and TNF-α | higher than those of wild-type neoepitopes | killed a greater number of T2 cells loaded with wild-type neoepitopes | more IFN-γ than the wild-type neoepitopes |
| PLLPVTCGV [mutSP140] | >24 h | 18.87% ± 0.81% | 44.70% ± 1.68% | 3.79 ± 0.50 |  |  |  |  |  |
| SLIISVDGV [mutSTOML2] | >18 h | 17.70% ± 1.14% | 41.30% ± 1.76% | 4.71 ± 0.41 | released more IFN-γ and TNF-α | released more IFN-γ and TNF-α | higher than those of wild-type neoepitopes | killed a greater number of T2 cells loaded with wild-type neoepitopes | more IFN-γ than the wild-type neoepitopes |
| SVIISVDGV [mutSTOM] | <18 h | 14.03% ± 0.76% | 35.53% ± 1.02% | 4.27 ± 0.52 |  |  |  |  |  |
| YLLPVTCGV [mutSP140Y1] |  | 23.43% ± 1.17% | 56.20% ± 1.28% |  | released more IFN-γ and TNF-α | released more IFN-γ and TNF-α | higher than those of wild-type neoepitopes; also recorded: more stable than mutSP140 | killed a greater number of T2 cells loaded with wild-type neoepitopes | more IFN-γ than the wild-type neoepitopes |

Source: publication PMC8610152, “Residue substitution enhances the immunogenicity of neoepitopes from gastric cancers” (Cancer Biology & Medicine, 2021)
